Assay results from publication PMC9834408, “The SPOC domain is a phosphoserine binding module that bridges transcription machinery with co- and post-transcriptional regulators” (Nature Communications, 2023).
Values joined by “and” are separate entries in the source; they are usually repeats but may differ in a detail not shown here. Identical values can stand only once. Like-named read-outs stand apart in the source and are kept apart here. Values belong to the compound of their own block, whether it stands above or below them. Where a SMILES comes first, the peptide text is derived from it. [ ]: non-standard residue; d: D form. The star is where a group is joined. 5FAM = O=C1OC2(c3ccc(O)cc3Oc3cc(O)ccc32)c2ccc(C(=O)*)cc21; pS = N[C@@H](COP(=O)(O)O)C(=O)O

Experiments:
PHF3 SPOC = molecular target: T1, PHF3 SPOC (Homo sapiens, UniProt Q92576); assay: Fluorescence anisotropy binding of labeled peptides to PHF3 SPOC WT
T1 construct: His6-PHF3 SPOC was generated previously; His6 (N, cleaved yes); made in house; host or cells: E. coli Rosetta2 (DE3)
Procedure: (§1) SPOC domains were expressed in E. coli Rosetta2 (DE3) cells (Novagen). ON cultures were diluted 1:50 in 2×TY, grown at 37 °C until OD600 = 0.8, and induced with 0.5 mM IPTG for 3 h at 30 °C. […] Elution with 25 mM Tris-Cl pH 7.4, 500 mM NaCl, and 500 mM Imidazole was followed by TEV cleavage of the His6-tag and size exclusion chromatography using Sephacryl S-200 HR 16/600 or 26/600 (Cytiva) equilibrated in 25 mM Tris-Cl pH 7.4, 25 mM NaCl, 1 mM DTT.
(§2) One molar equivalent of Atto-488 NHS ester (Atto-tec) and five equivalents of DIPEA (Sigma-Aldrich) was added to three equivalents of the peptide. Reactions were incubated ON at room temperature (RT) and protected from light. Labeled peptides were purified by reverse-phase HPLC over a C18 column (Agilent Technologies) using a gradient from 30 to 70% Methanol (Merck). Purified peptides were lyophilized and stored at −20 °C.
(§3) Fluorescence anisotropy measurements were performed on a Perkin Elmer LS50 B fluorescence spectrometer operated by Perkin Elmar FL WinLab software (version 3.00). The excitation wavelength was set to 500 nm (excitation slit 10 nm), the emission wavelength to 518 nm (emission slit 6 nm), and the integration time to 1 s. Measurements were conducted at 20 °C in 25 mM Tris-Cl pH 7.4, 25 mM NaCl, and 1 mM DTT. The grating factor was determined using unconjugated Atto-488 dye. […]

PHF3 SPOC R1248A = molecular target: T2, PHF3 SPOC R1248A (Homo sapiens, UniProt Q92576, R1248A); assay: Fluorescence anisotropy binding of labeled peptides to PHF3 SPOC R1248A; conditions: 90 nM labeled peptide, 25 mM Tris-Cl pH 7.4, 25 mM NaCl, 1 mM DTT, 20 °C, three independent experiments
T2 construct: His6-PHF3 SPOC was generated previously; His6 (N, cleaved yes); made in house; host or cells: E. coli Rosetta2 (DE3)
T2 sequence (Q92576 1199-1356 R1248A limits assumed): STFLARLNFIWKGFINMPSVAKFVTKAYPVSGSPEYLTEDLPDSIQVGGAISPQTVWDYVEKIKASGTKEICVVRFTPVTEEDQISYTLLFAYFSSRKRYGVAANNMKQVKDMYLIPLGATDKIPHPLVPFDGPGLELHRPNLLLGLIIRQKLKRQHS
Description: (§4) For mammalian expression, human DIDO3, SHARP, and RBM15 were amplified from HEK293T cDNA and cloned into CMV10 N3XFLAG (Sigma) by Gibson assembly (NEB). These constructs were used for cloning ΔSPOC truncations using Gibson assembly (NEB). CMV10 N3XFLAG-PHF3 and PHF3 ΔSPOC constructs were generated previously. NLS-SPOC constructs were cloned into CMV10 N3XFLAG (Sigma) between NotI and XbaI. NLS sequence ([…]) was introduced to ensure nuclear localization of the isolated SPOC domains. […] His6-PHF3 SPOC was generated previously. Arginine mutations were introduced by site-directed mutagenesis according to the FastCloning protocol. Repair templates for CRISPR/Cas9 knock-in were cloned by Gibson assembly. Primer sequences are listed in Supplementary Table 4.
(§5) SPOC domains were expressed in E. coli Rosetta2 (DE3) cells (Novagen). ON cultures were diluted 1:50 in 2×TY, grown at 37 °C until OD600 = 0.8, and induced with 0.5 mM IPTG for 3 h at 30 °C. […]
(§6) Fluorescence anisotropy measurements were performed on a Perkin Elmer LS50 B fluorescence spectrometer operated by Perkin Elmar FL WinLab software (version 3.00). […] The grating factor was determined using unconjugated Atto-488 dye. […]

DIDO SPOC R1096A = molecular target: T3, DIDO SPOC R1096A (Homo sapiens, UniProt Q9BTC0, R1096A); assay: Fluorescence anisotropy binding of labeled peptides to DIDO SPOC R1096A; conditions: 90 nM labeled peptide, 25 mM Tris-Cl pH 7.4, 25 mM NaCl, 1 mM DTT, 20 °C, three independent experiments
T3 construct: human DIDO3 SPOC (1047–1205 aa); His6 (N, cleaved yes); made in house; host or cells: E. coli Rosetta2 (DE3)
T3 sequence (Q9BTC0 1047-1205 R1096A): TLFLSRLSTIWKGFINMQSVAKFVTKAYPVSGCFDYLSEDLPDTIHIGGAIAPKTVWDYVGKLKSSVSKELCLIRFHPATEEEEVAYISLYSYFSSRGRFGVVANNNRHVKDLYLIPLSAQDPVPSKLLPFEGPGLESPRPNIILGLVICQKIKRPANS
Description: as §4, §5, §6

DIDO SPOC = molecular target: T4, DIDO SPOC (Homo sapiens, UniProt Q9BTC0); assay: Fluorescence anisotropy binding of labeled peptides to DIDO SPOC WT; conditions: 90 nM labeled peptide, 25 mM Tris-Cl pH 7.4, 25 mM NaCl, 1 mM DTT, 20 °C, three independent experiments
T4 construct: human DIDO3 SPOC (1047–1205 aa); His6 (N, cleaved yes); made in house; host or cells: E. coli Rosetta2 (DE3)
Description: as §4, §5, §6

RBM15 SPOC = molecular target: T5, RBM15 SPOC (Homo sapiens, UniProt Q96T37); assay: Fluorescence anisotropy binding of labeled peptides to RBM15 SPOC WT; conditions: 90 nM labeled peptide, 25 mM Tris-Cl pH 7.4, 25 mM NaCl, 1 mM DTT, 20 °C, three independent experiments
T5 construct: RBM15 SPOC (775–960 aa); His6 (N, cleaved yes); made in house; host or cells: E. coli Rosetta2 (DE3)
Description: as §4, §1, §2, §3

SHARP SPOC = molecular target: T6, SHARP SPOC (Homo sapiens, UniProt Q96T58); assay: Fluorescence anisotropy binding of labeled peptides to SHARP SPOC WT; conditions: 90 nM labeled peptide, 25 mM Tris-Cl pH 7.4, 25 mM NaCl, 1 mM DTT, 20 °C, three independent experiments
T6 construct: SHARP SPOC (3496–3664 aa); His6 (N, cleaved yes); made in house; host or cells: E. coli Rosetta2 (DE3)

SHARP SPOC R3552A = molecular target: T7, SHARP SPOC R3552A (Homo sapiens, UniProt Q96T58, R3552A); assay: Fluorescence anisotropy binding of labeled peptides to SHARP SPOC R3552A; conditions: 90 nM labeled peptide, 25 mM Tris-Cl pH 7.4, 25 mM NaCl, 1 mM DTT, 20 °C, three independent experiments
T7 construct: SHARP SPOC (3496–3664 aa); His6 (N, cleaved yes); made in house; host or cells: E. coli Rosetta2 (DE3)
T7 sequence (Q96T58 3496-3664 R3552A): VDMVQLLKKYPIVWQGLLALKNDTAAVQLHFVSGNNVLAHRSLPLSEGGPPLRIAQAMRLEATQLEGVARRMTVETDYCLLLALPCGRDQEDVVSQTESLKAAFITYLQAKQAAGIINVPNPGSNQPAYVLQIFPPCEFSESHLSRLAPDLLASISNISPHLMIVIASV
Description: as §4, §5, §6

T5 sequence (Q96T37 775-960): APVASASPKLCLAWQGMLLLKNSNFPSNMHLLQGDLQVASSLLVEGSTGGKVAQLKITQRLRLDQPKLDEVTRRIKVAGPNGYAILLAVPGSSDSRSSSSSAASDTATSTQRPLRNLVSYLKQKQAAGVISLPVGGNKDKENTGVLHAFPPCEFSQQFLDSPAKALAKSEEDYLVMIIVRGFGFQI
T1 sequence (Q92576 1199-1356 limits assumed): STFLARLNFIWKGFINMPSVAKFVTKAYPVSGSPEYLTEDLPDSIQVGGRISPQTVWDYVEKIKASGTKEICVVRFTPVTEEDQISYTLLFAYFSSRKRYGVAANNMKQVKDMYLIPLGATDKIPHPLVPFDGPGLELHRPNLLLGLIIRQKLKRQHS
T4 sequence (Q9BTC0 1047-1205): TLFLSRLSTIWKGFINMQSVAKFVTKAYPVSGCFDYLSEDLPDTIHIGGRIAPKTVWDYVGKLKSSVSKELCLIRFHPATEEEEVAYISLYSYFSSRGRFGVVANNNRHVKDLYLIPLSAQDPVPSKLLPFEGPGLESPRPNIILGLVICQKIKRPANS
T6 sequence (Q96T58 3496-3664): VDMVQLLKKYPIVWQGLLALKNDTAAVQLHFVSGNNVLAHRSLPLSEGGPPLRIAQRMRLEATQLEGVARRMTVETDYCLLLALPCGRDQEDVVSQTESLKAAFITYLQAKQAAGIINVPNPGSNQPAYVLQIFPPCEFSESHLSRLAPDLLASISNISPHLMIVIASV

Structure (SMILES): C[C@@H](O)[C@H](NC(=O)[C@@H]1CCCN1C(=O)[C@H](CO)NC(=O)[C@H](Cc1ccc(O)cc1)NC(=O)[C@H](CO)NC(=O)[C@@H]1CCCN1C(=O)[C@H](CO)NC(=O)[C@@H](NC(=O)[C@@H]1CCCN1C(=O)[C@H](COP(=O)(O)O)NC(=O)[C@H](Cc1ccc(O)cc1)NC(=O)[C@H](CO)NC(=O)[C@@H]1CCCN1)[C@@H](C)O)C(=O)N[C@@H](CO)C(=O)N1CCC[C@H]1C(=O)N[C@@H](CO)C(=O)O [1xS2P]
Kd (PHF3 SPOC): 103 ± 4 µM

Structure (SMILES): C[C@@H](O)[C@H](NC(=O)[C@@H]1CCCN1C(=O)[C@H](COP(=O)(O)O)NC(=O)[C@H](Cc1ccc(O)cc1)NC(=O)[C@H](CO)NC(=O)[C@@H]1CCCN1C(=O)[C@H](CO)NC(=O)[C@@H](NC(=O)[C@@H]1CCCN1C(=O)[C@H](COP(=O)(O)O)NC(=O)[C@H](Cc1ccc(O)cc1)NC(=O)[C@H](CO)NC(=O)[C@@H]1CCCN1)[C@@H](C)O)C(=O)N[C@@H](CO)C(=O)N1CCC[C@H]1C(=O)N[C@@H](CO)C(=O)O [2xS2P]
Kd (PHF3 SPOC R1248A): 8.4 ± 0.3 µM
Kd (DIDO SPOC R1096A): 22.4 ± 2.1 µM
Kd (DIDO SPOC): 4.8 ± 0.6 µM
Kd (PHF3 SPOC; PHF3 SPOC WT, fluorescence anisotropy, 90 nM labeled peptide titrated with SPOC domain, 25 mM Tris-Cl pH 7.4, 25 mM NaCl, 1 mM DTT, 20 °C, three independent experiments, read-out: Kd): 0.42 ± 0.02 µM

Structure (SMILES): C[C@@H](O)[C@H](NC(=O)[C@@H]1CCCN1C(=O)[C@H](CO)NC(=O)[C@H](Cc1ccc(O)cc1)NC(=O)[C@H](CO)NC(=O)[C@@H]1CCCN1C(=O)[C@H](COP(=O)(O)O)NC(=O)[C@@H](NC(=O)[C@@H]1CCCN1C(=O)[C@H](CO)NC(=O)[C@H](Cc1ccc(O)cc1)NC(=O)[C@H](CO)NC(=O)[C@@H]1CCCN1)[C@@H](C)O)C(=O)N[C@@H](COP(=O)(O)O)C(=O)N1CCC[C@H]1C(=O)N[C@@H](CO)C(=O)O [2xS5P]
Kd (RBM15 SPOC; read-out: Kd): 11.8 µM and 29.6 µM
Kd (SHARP SPOC): 20.6 ± 0.1 µM

Structure (SMILES): C[C@@H](O)[C@H](NC(=O)[C@@H]1CCCN1C(=O)[C@H](CO)NC(=O)[C@H](Cc1ccc(O)cc1)NC(=O)[C@H](COP(=O)(O)O)NC(=O)[C@@H]1CCCN1C(=O)[C@H](CO)NC(=O)[C@@H](NC(=O)[C@@H]1CCCN1C(=O)[C@H](CO)NC(=O)[C@H](Cc1ccc(O)cc1)NC(=O)[C@H](CO)NC(=O)[C@@H]1CCCN1)[C@@H](C)O)C(=O)N[C@@H](CO)C(=O)N1CCC[C@H]1C(=O)N[C@@H](COP(=O)(O)O)C(=O)O [2xS7P]
Kd (RBM15 SPOC; Kd): 23.5 ± 0.4 µM

Kd (SHARP SPOC R3552A): 23.3 ± 0.5 µM
Structure (SMILES): CC(C)C[C@H](NC(=O)[C@H](CC(C)C)NC(=O)[C@@H]1CCCN1C(=O)[C@H](C)NC(=O)[C@@H]1CCCN1C(=O)[C@H](CCC(=O)O)NC(=O)[C@H](CCCNC(=N)N)NC(=O)c1ccc2c(c1)C(=O)OC21c2ccc(O)cc2Oc2cc(O)ccc21)C(=O)N[C@@H](CO)C(=O)N[C@@H](C)C(=O)N[C@@H](CCC(N)=O)C(=O)N[C@@H](Cc1ccc(O)cc1)C(=O)N[C@@H](CCC(=O)O)C(=O)N[C@H](C(=O)N[C@@H](CC(C)C)C(=O)N[C@@H](COP(=O)(O)O)C(=O)N[C@@H](CC(=O)O)C(=O)N[C@@H](CO)C(=O)N[C@@H](CC(=O)O)C(=O)N[C@@H](CC(=O)O)C(=O)O)[C@@H](C)O [NCoR pS2436] (5FAM-REPAPLLSAQYETL[pS]DSDD-OH)

Kd (SHARP SPOC R3552A): 262 ± 74.2 µM
Structure (SMILES): CC(C)C[C@H](NC(=O)[C@H](CC(C)C)NC(=O)[C@@H]1CCCN1C(=O)[C@H](C)NC(=O)[C@@H]1CCCN1C(=O)[C@H](CCC(=O)O)NC(=O)[C@H](CCCNC(=N)N)NC(=O)c1ccc2c(c1)C(=O)OC21c2ccc(O)cc2Oc2cc(O)ccc21)C(=O)N[C@@H](CO)C(=O)N[C@@H](C)C(=O)N[C@@H](CCC(N)=O)C(=O)N[C@@H](Cc1ccc(O)cc1)C(=O)N[C@@H](CCC(=O)O)C(=O)N[C@H](C(=O)N[C@@H](CC(C)C)C(=O)N[C@@H](CO)C(=O)N[C@@H](CC(=O)O)C(=O)N[C@@H](CO)C(=O)N[C@@H](CC(=O)O)C(=O)N[C@@H](CC(=O)O)C(=O)O)[C@@H](C)O [NCoR] (5FAM-REPAPLLSAQYETLSDSDD-OH)

Kd (RBM15 SPOC; read-out: Kd): 21.5 ± 1.5 µM
Structure (SMILES): CSCC[C@H](NC(=O)c1ccc2c(c1)C(=O)OC21c2ccc(O)cc2Oc2cc(O)ccc21)C(=O)N[C@H](C(=O)N[C@@H](CC(N)=O)C(=O)N[C@@H](CCC(=O)O)C(=O)N[C@@H](CCC(=O)O)C(=O)N1CCC[C@H]1C(=O)N[C@@H](CC(C)C)C(=O)N1CCC[C@H]1C(=O)N[C@@H](CCCCN)C(=O)N[C@@H](CCCCN)C(=O)N[C@H](C(=O)N[C@@H](CCCNC(=N)N)C(=O)N[C@@H](CC(C)C)C(=O)N[C@@H](COP(=O)(O)O)C(=O)N[C@@H](CCC(=O)O)C(=O)N[C@H](C(=O)N[C@@H](CC(=O)O)C(=O)N[C@@H](Cc1ccccc1)C(=O)N[C@@H](CCCCN)C(=O)O)[C@@H](C)O)C(C)C)[C@@H](C)O [WTAP pS14] (5FAM-MTNEEPLPKKVRL[pS]ETDFK-OH)
